In ChEMBL document CHEMBL2331473, “Two-component covalent inhibitor” (Bioorg Med Chem, 2013):
Active and inactive are the calls of the source. The rule behind the calls is not given here.

Columns and labels:
Tequatrovirus T4 [1] = assay: (§1) Inhibition of Enterobacteria phage T4 DNA polymerase using biotin-labeled oligonucleotide hairpin substrate containing pre-reactive group at 3'-end assessed as loss of hairpin substrate elongation product at 10 uM incubated for 15 mins by PAGE method and filter binding assay
Tequatrovirus T4 [2] = assay: as §1, with “mins in presence of 4000 fold-excess of non-specific T7 RNA polymerase” for “mins”

inhibition (Tequatrovirus T4 [1]): 87%
inhibition (Tequatrovirus T4 [2]): Active
SMILES: O=C(CCCc1ccc2ccc3cccc4ccc1c2c34)NC/C=C/c1cn([C@H]2C[C@H](O)[C@@H](COP(=O)(O)OP(=O)(O)OP(=O)(O)O)O2)c(=O)[nH]c1=O
